Test results from patent US10934298B2, “Substituted pyrazolo[1,5-a]pyrimidines for the treatment of medical disorders” (BIAL—BioTech Investments, Inc., priority 2016, dated 2021).

Target: T1, glucocerebrosidase (Gcase) (Homo sapiens, UniProt P04062)
T1 construct: micellar solution containing 10 nM GCase and 100 nM saposin C
T1 sequence (P04062 40-536): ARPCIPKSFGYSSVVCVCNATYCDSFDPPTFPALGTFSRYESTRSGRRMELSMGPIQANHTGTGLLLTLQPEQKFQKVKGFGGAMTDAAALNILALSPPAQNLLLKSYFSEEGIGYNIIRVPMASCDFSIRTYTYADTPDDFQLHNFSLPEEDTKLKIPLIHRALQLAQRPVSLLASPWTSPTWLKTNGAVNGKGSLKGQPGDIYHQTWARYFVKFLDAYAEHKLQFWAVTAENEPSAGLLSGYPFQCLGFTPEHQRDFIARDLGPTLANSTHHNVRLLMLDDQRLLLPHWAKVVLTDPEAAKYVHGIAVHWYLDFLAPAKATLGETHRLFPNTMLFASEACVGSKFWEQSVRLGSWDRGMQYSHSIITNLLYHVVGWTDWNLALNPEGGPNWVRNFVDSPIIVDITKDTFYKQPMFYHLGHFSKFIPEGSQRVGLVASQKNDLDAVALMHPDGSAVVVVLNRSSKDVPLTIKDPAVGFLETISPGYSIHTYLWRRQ
Test: Glucocerebrosidase (Gcase) activation assay with 4-methylumbelliferyl-beta-D-glucopyranoside substrate, saposin C and phosphatidylserine/triton micelles, fluorescence readout
Assay type: biochemical
Conditions: for Percent Gcase Activation, 0.1 μM Test Compound: test compound at 0.1 μM; for Percent Gcase Activation, 1 μM Test Compound: test compound at 1.0 μM
Procedure, shortened: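 Fluorescence (ex 365 nm, em 440 nm) read after glycine pH 12.5 stop of a 15 min room-temperature reaction. GCase 10 nM plus saposin C 100 nM in PS/triton micelles, pH 4.7, preincubated 30 min with compound; substrate solution held 2 mM 4-MU-beta-glucoside. Screened at 1.0 and 0.1 μM; 8-point, 3-fold curves from 5 μM top.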

| SMILES | Percent Gcase Activation, 0.1 μM Test Compound | Percent Gcase Activation, 1 μM Test Compound |
| --- | --- | --- |
| Cc1cc(-c2cccc(F)c2)nc2c(C(=O)NC(C3CC3)C(F)(F)F)cnn12 (centres unmarked) [III-111] | *** (greater than 20% Gcase activation) | +++ (Gcase activation greater than 60%) |
| Cc1cc(-c2ccc(F)nc2)nc2c(C(=O)NC(C3CC3)C(F)(F)F)cnn12 (centres unmarked) [III-112] | *** (greater than 20% Gcase activation) | +++ (Gcase activation greater than 60%) |
| Cc1cc(-c2cccnc2F)nc2c(C(=O)NC(C3CC3)C(F)(F)F)cnn12 (centres unmarked) [III-113] | *** (greater than 20% Gcase activation) | +++ (Gcase activation greater than 60%) |
| Cc1cc(-c2cccnc2F)nc2c(C(=O)N[C@H](C3CC3)C(F)(F)F)cnn12 [III-114] | *** (greater than 20% Gcase activation) | +++ (Gcase activation greater than 60%) |
| Cc1cc(-c2cccnc2F)nc2c(C(=O)N[C@@H](C3CC3)C(F)(F)F)cnn12 [III-115] | *** (greater than 20% Gcase activation) | +++ (Gcase activation greater than 60%) |
| Cc1cc(-c2ccc(Cl)nc2)nc2c(C(=O)NC(C3CC3)C(F)(F)F)cnn12 (centres unmarked) [III-116] | *** (greater than 20% Gcase activation) | +++ (Gcase activation greater than 60%) |
| Cc1cc(-c2ccc(Cl)nc2)nc2c(C(=O)N[C@H](C3CC3)C(F)(F)F)cnn12 [III-117] | *** (greater than 20% Gcase activation) | +++ (Gcase activation greater than 60%) |
| Cc1cc(-c2cncc(Cl)c2)nc2c(C(=O)NC(C3CC3)C(F)(F)F)cnn12 (centres unmarked) [III-119] | *** (greater than 20% Gcase activation) | +++ (Gcase activation greater than 60%) |
| Cc1cc(-c2cncc(Cl)c2)nc2c(C(=O)N[C@H](C3CC3)C(F)(F)F)cnn12 [III-120] | *** (greater than 20% Gcase activation) | +++ (Gcase activation greater than 60%) |
| Cc1cc(-c2cncc(Cl)c2)nc2c(C(=O)N[C@@H](C3CC3)C(F)(F)F)cnn12 [III-121] | *** (greater than 20% Gcase activation) | +++ (Gcase activation greater than 60%) |
| Cc1cc(-c2cnccc2Cl)nc2c(C(=O)NC(C3CC3)C(F)(F)F)cnn12 (centres unmarked) [III-122] | *** (greater than 20% Gcase activation) | +++ (Gcase activation greater than 60%) |
| Cc1cc(-c2cccnc2Cl)nc2c(C(=O)NC(C3CC3)C(F)(F)F)cnn12 (centres unmarked) [III-123] | ** (Gcase activation in the range of 10% up to 20%) | +++ (Gcase activation greater than 60%) |
| Cc1cc(-c2cnccc2F)nc2c(C(=O)NC(C3CC3)C(F)(F)F)cnn12 (centres unmarked) [III-124] | *** (greater than 20% Gcase activation) | +++ (Gcase activation greater than 60%) |
| Cc1cc(-c2cncc(F)c2)nc2c(C(=O)NC(C3CC3)C(F)(F)F)cnn12 (centres unmarked) [III-125] | *** (greater than 20% Gcase activation) | +++ (Gcase activation greater than 60%) |
| Cc1cc(-c2cncc(F)c2)nc2c(C(=O)N[C@H](C3CC3)C(F)(F)F)cnn12 [III-126] | *** (greater than 20% Gcase activation) | +++ (Gcase activation greater than 60%) |
| Cc1cc(-c2cncc(F)c2)nc2c(C(=O)N[C@@H](C3CC3)C(F)(F)F)cnn12 [III-127] | *** (greater than 20% Gcase activation) | +++ (Gcase activation greater than 60%) |
| Cc1cc(-c2cc(F)cc(C#N)c2)nc2c(C(=O)N[C@@H](C)C3CC3)cnn12 [III-128] | *** (greater than 20% Gcase activation) | +++ (Gcase activation greater than 60%) |
| Cc1cc(-c2cccc(Cl)n2)nc2c(C(=O)N[C@H](C)C3CC3)cnn12 [III-132] | ** (Gcase activation in the range of 10% up to 20%) | +++ (Gcase activation greater than 60%) |
| Cc1cc(-c2cccc(C#N)n2)nc2c(C(=O)NC(C3CC3)C(F)(F)F)cnn12 (centres unmarked) [III-133] | ** (Gcase activation in the range of 10% up to 20%) | +++ (Gcase activation greater than 60%) |
| Cc1cc(-c2cccc(F)n2)nc2c(C(=O)N[C@@H](C)C3CC3)cnn12 [III-134] | ** (Gcase activation in the range of 10% up to 20%) | +++ (Gcase activation greater than 60%) |
| Cc1cc(-c2cccc(F)n2)nc2c(C(=O)N[C@H](C)C3CC3)cnn12 [III-135] | ** (Gcase activation in the range of 10% up to 20%) | +++ (Gcase activation greater than 60%) |
| COc1c(F)cccc1-c1cc(C)n2ncc(C(=O)N[C@@H](C)C3CC3)c2n1 [III-138] | ** (Gcase activation in the range of 10% up to 20%) | +++ (Gcase activation greater than 60%) |
| COc1c(F)cccc1-c1cc(C)n2ncc(C(=O)NC(C3CC3)C(F)(F)F)c2n1 (centres unmarked) [III-139] | ** (Gcase activation in the range of 10% up to 20%) | +++ (Gcase activation greater than 60%) |
| COc1c(F)cccc1-c1cc(C)n2ncc(C(=O)NC(C)C(F)(F)F)c2n1 (centres unmarked) [III-140] | ** (Gcase activation in the range of 10% up to 20%) | +++ (Gcase activation greater than 60%) |
| COc1cc(-c2cc(C)n3ncc(C(=O)NC(C)C(F)(F)F)c3n2)ccc1F (centres unmarked) [III-148] | ** (Gcase activation in the range of 10% up to 20%) | +++ (Gcase activation greater than 60%) |

Continued, values first:

| Percent Gcase Activation, 0.1 μM Test Compound | Percent Gcase Activation, 1 μM Test Compound | SMILES |
| --- | --- | --- |
| *** (greater than 20% Gcase activation) | +++ (Gcase activation greater than 60%) | COc1cc(C#N)cc(-c2cc(C)n3ncc(C(=O)N[C@@H](C)C4CC4)c3n2)c1 [III-129] |
| *** (greater than 20% Gcase activation) | +++ (Gcase activation greater than 60%) | Cc1cc(-c2cccc(Cl)n2)nc2c(C(=O)N[C@@H](C)C3CC3)cnn12 [III-131] |
| *** (greater than 20% Gcase activation) | +++ (Gcase activation greater than 60%) | Cc1cc(-c2ccccc2)nc2c(C(=O)N[C@@H](C)C3CC3)cnn12 [III-136] |
| *** (greater than 20% Gcase activation) | +++ (Gcase activation greater than 60%) | COc1cc(F)cc(-c2cc(C)n3ncc(C(=O)N[C@@H](C)C4CC4)c3n2)c1 [III-137] |
| * (less than 10% Gcase activation) | +++ (Gcase activation greater than 60%) | COc1c(C#N)cccc1-c1cc(C)n2ncc(C(=O)NC(C3CC3)C(F)(F)F)c2n1 (centres unmarked) [III-141] |
| * (less than 10% Gcase activation) | + (less than 30% Gcase activation) | COc1c(C#N)cccc1-c1cc(C)n2ncc(C(=O)NC(C)C(F)(F)F)c2n1 (centres unmarked) [III-142] |
| * (less than 10% Gcase activation) | + (less than 30% Gcase activation) | COc1c(C#N)cccc1-c1cc(C)n2ncc(C(=O)N[C@@H](C)C3CC3)c2n1 [III-143] |
| * (less than 10% Gcase activation) | + (less than 30% Gcase activation) | COc1c(C#N)cccc1-c1cc(C)n2ncc(C(=O)N[C@H](C)C3CC3)c2n1 [III-144] |
| *** (greater than 20% Gcase activation) | +++ (Gcase activation greater than 60%) | COc1cc(-c2cc(C)n3ncc(C(=O)N[C@@H](C)C4CC4)c3n2)ccc1F [III-145] |
| *** (greater than 20% Gcase activation) | +++ (Gcase activation greater than 60%) | COc1cc(F)ccc1-c1cc(C)n2ncc(C(=O)N[C@@H](C)C3CC3)c2n1 [III-146] |
| *** (greater than 20% Gcase activation) | +++ (Gcase activation greater than 60%) | COc1cc(-c2cc(C)n3ncc(C(=O)NC(C4CC4)C(F)(F)F)c3n2)ccc1F (centres unmarked) [III-147] |
| *** (greater than 20% Gcase activation) | +++ (Gcase activation greater than 60%) | COc1cc(F)ccc1-c1cc(C)n2ncc(C(=O)NC(C3CC3)C(F)(F)F)c2n1 (centres unmarked) [III-149] |
